# Assay results reported in patent publication US11400104B2, “Skeletal removal of bisphosphonates” (The Regents of the University of California, priority 2016, dated 2022).
# Entries after “also recorded” stand apart in the source; their conditions may differ.
# Assays:
# [1] = hydroxyapatite (HAP) binding affinity, relative retention times normalized to RIS; details: FIG. 7
# Protocol: FIG. 7 is a bar graph showing hydroxyapatite (HAP) binding affinity of Zoledronate (ZOL), ROX-RIS, 5-FAM-ZOL, and AF647-ZOL. Relative retention times were normalized to RIS.
# Hydroxyapatite assays indicate that the FL-BPs generally retain substantial affinity for bone mineral that reflect the affinity of the BP component and to a lesser extent, the affinity of the conjugated fluorophore. Hydroxyapatite (Macro-Prep® Ceramic hydroxyapatite Type II […]) was obtained from Bio-Rad Laboratories, Inc. Hercules, Calif. Accurately weighed hydroxyapatite powder (1.4-1.6 mg) was suspended in a 4 mL clear vial containing the appropriate volume of assay buffer (0.05% (wt/vol) Tween20, 10 μM EDTA and 100 mM HEPES pH=7.4) for 3 hours. Hydroxyapatite was then incubated with increasing amounts of FAM-BP and ROX-BP (0, 25, 50, 100, 200, and 300 μM). Samples were gently shaken for 3 hours at 37° C. in appropriate volume of assay buffer (0.05% (wt/vol) Tween20, 10 μM EDTA and 100 mM HEPES pH=7.4). Subsequent to the equilibrium period, the vials were centrifuged at 10,000 rpm for 5 minutes to separate the solids and the supernatant. 0.3 mL of the supernatant was collected and the equilibrium solution concentration is measured by using Shimadzu UV-VIS spectrometer. For the calibration series, FL-BP probe standards were prepared by serial dilution from the stock solution with the same isotherm buffer to give the range from 0 to 400 μM. Calibration curves were constructed using standard solutions of the target FL-BPs. Fluorescent emission can also be used to calculate the binding parameters. Nonspecific binding was measured with a similar procedure in the absence of hydroxyapatite as control. Binding parameters (Kd and Bmax, represent the equilibrium dissociate constant and maximum number of binding sites, respectively) were calculated using the PRISM program (Graphpad, USA). The binding parameters of each compound was measured in 5 independent experiments. […]
# mouse cranial bone = test: cranial bone displacement: AF647-ZOL pre-adsorbed via IV, FAM-ZOL sub-periosteal injection; format: in vivo; details: for signal of pre-adsorbed AF647-ZOL at the FAM-ZOL injection site: AF647-ZOL 100 μl of 50 μM IV 6 days before, increasing dose of FAM-ZOL; for FAM signal on the cranial bone at the injection site: sub-periosteal 10 μl of 0, 1, 10 or 50 μM
# Protocol: FIG. 12A to FIG. 12C show the displacement and replacement of AF647-ZOL and 5-FAM-ZOL. FIG. 12A are fluorescent images of cranial bone. AF647-ZOL (50 μM) was pre-adsorbed on cranial bone via IV injection. 5-FAM-ZOL at the indicated doses was directly injected to the sub-periosteal space. […] The first bars of each set are for AF647-ZOL and the second bars of each set are for 5-FAM-ZOL. *, P<0.05 vs Veh by Dunnett's test.
# Mice were pre-treated by 100 μl of 50 μM AF647-ZOL retro-orbital IV injection. Six days later, mice received sub-periosteal injection to cranial bone with 10 μl of 0 μM, 1 μM, 10 μM, or 50 μM FAM-ZOL. The cranial bone was harvested and soft tissues were removed. The fluorescent signals of AF647 and FAM were measured by standardized fluorescent biophotonics. The cranial bones were then prepared for cryosection. Cross-sections were made by the tape method and evaluated by confocal laser scanning microscopy.
# mouse maxilla = test: preliminary study: fluorescent imaging of mouse maxilla after 5-FAM-ZOL IV or ROX-RIS intraoral injection; format: in vivo; details: single IV 200 μl of 350 μM; 3 weeks after
# Protocol: In a preliminary study female C57B16/J (B6) mice (8 weeks old) received either a single IV injection via tail vein of 200 μl of 350 μM 5-FAM-ZOL (5-FAM-ZOL, #BV111001, BioVinc LLC, Culver City, Calif.) or a single intraoral injection of 25 μl of 50 μM ROX-RIS (5(6)-ROX-RIS, #BV150101, BioVinc LLC, CA) to gingival/palatal tissue at maxillary left first molar (white arrow in FIG. 11). […], mice were euthanized 3 weeks after the IV injection of 5-FAM-ZOL or 2 days after the intraoral injection of ROX-RIS. Skulls (containing maxilla) were harvested and standardized fluorescent biophotonics image was obtained using an excitation wavelength of 460 nm and the 515 nm filter (LAS3000, FUJIFILM Corp).
# femur trabecular bone = test: micro CT evaluation of pharmacological function of 5-FAM-ZOL in vitamin D deficient rats; format: in vivo; details: vitamin D deficient (VitD (−)) rats; FIG. 13
# Protocol: The pharmacological function of 5-FAM-ZOL was examined in vitamin D deficient (VitD (−)) rats (n=3 in each group). […] Bars are 1.0 mm. *: p<0.05 by Student's t-test.
# This study determines the anti-resorptive function of FL-BP in vivo, as compared to ZOL. Female B6 mice were injected with 50 μM ZOL (n=6), 50 μM FL-BP (n=6) or 0.9% NaCl vehicle solution (control: n=6) via tail vein. Three weeks later, mice were euthanized and femur and L4/L5 were harvested. After fixed in 10% buffered formalin, bone samples were subjected to micro CT analysis. The anti-resorptive function were quantitatively established by the trabecular bone three-dimensional morphometry (e.g., BV/TV, Tb.N, Tb.Th, TbSp). FL-BPs with minimal or no pharmacological BP function are used.
structure (smiles),measurement,setting,value
O=C(NCC(O)C[n+]1ccn(CC(O)(P(=O)(O)O)P(=O)(O)O)c1)c1ccc(-c2c3ccc(=O)cc-3oc3cc(O)ccc23)c(C(=O)O)c1 (stereo not drawn) [5-FAM-ZOL],influence of the fluorophore on hydroxyapatite affinity,[1],small reduction
same,signal of pre-adsorbed AF647-ZOL at the FAM-ZOL injection site,mouse cranial bone,decreased
same,signal of pre-adsorbed AF647-ZOL at the FAM-ZOL injection site,mouse cranial bone; listed as FAM-ZOL,gradual decrease
same,AF647-ZOL signal on the external versus internal bone surface after FAM-ZOL injection,mouse cranial bone; cranial bone cryo-cross sections,disproportionately reduced
same,FAM signal on the cranial bone at the injection site,mouse cranial bone,increased with increasing injection dose
same,FAM signal on the cranial bone at the injection site,mouse cranial bone; listed as FAM-ZOL,dose dependent increase
same,location of FAM-ZOL signal in cranial bone,"mouse cranial bone; sub-periosteal injection, cryo-cross sections",primarily on the external bone surface
same,fluorescent signal in maxilla and zygomatic arch,mouse maxilla,Strong and relatively uniform green fluorescent signal
same,pharmacological (anti-resorptive) function,femur trabecular bone,exhibited pharmacological function; also recorded: effectively blocked catabolic bone remodeling
